Assays:
[1] = Plasma levels of LDA and LD after intravenous LDA-HCl in mice; assay type: in vivo
Experimental: (§1) The purpose of this experiment was to determine the plasma levels of LDA and LD following intravenous (IV) and oral (PO) administration of LDA-HCl in CD-1 mice.
(§2) CD-1 mice which were prepared for oral administration had to undergo fasting overnight prior to the dosing. The orally treated mice received food only 2 hour post-dosing. The method used to dose orally was oesophagotubage, and the IV mice were injected via a jugular vein under anesthesia (Isoflurane/O2). LDA-HCl solutions were dissolved in citrate buffer and LD/CD solution was prepared according to International Publication No. WO 2010/134074.
(§3) Blood samples were collected following the oral and IV dosing at pre-determined time points and plasma levels of LDA and LD were analysed by LC-MS-MS.

[2] = peripheral administration; cited from earlier work
[3] = Dissolution and stability of LDA in organic acid solutions; assay type: physicochemical; conditions: for Chemical stability after 3 days at RT: in % (unit assumed)
Experimental: The effect of organic acids on the stability of LDA solution was evaluated. Formulations were prepared by adding small aliquots of organic acid solutions, 100-300 μl, to ˜240 mg LDA until full dissolution while pH was monitored. The end point of acid addition was decided by appearance and/or by pH and/or total volume. LDA concentration was determined by HPLC.

[4] = Plasma pharmacokinetics of LDA and LD after oral LDA-HCl with and without CD in rats; assay type: in vivo; conditions: oral LDA-HCl 25 mg/kg
Experimental: The purpose of this experiment was to determine the plasma pharmacokinetics of LDA and LD following oral administration of LD or LDA-HCl with and without CD in Wistar rats.
Wistar rats underwent fasting overnight prior to the dosing and received food only 2 hour post-dosing. The method used to dose orally was via oesophagotubage. Solutions were prepared as described above.

[5] = Plasma levels of LDA and LD after oral LDA-HCl in mice; assay type: in vivo
Experimental: as §1, §2, §3

[6] = Physical stability of LDA-HCl solutions with or without added CD-Arg formulation; assay type: physicochemical; conditions: 0.75% CD; CD:Arg 1:1.25; LDA:HCl 1:0.92; pH 5.69; time points not separated
Experimental: HCl solutions at 3 different concentrations containing 0.3% Tween 80 were added to LDA to obtain solutions having a final LDA concentration of 200 mg/ml and a molar ratio of 1:0.89, 1:0.92 and 1:0.95 LDA:HCl. CD-Arg formulation (CD:Arg molar ratio 1:1.25) was prepared in Tween 80 0.3% and was added gradually under stirring to 4 volumes of each of the 3 LDA-HCl solutions. The physical stability of the solutions was evaluated (Table 15). As shown, the addition of CD to LDA-HCl solutions yielded stable solutions if added to LDA-HCl solutions having a pH>3.8, preferably pH >4.6.

[7] = Effect of preparation method and pH on stability of LDA-HCl/CD formulations; assay type: physicochemical; conditions: 5 days at room temperature (Table 7)
Experimental: LDA-HCl/CD formulations were prepared by the following methods, and were then tested for stability. Method 1. Carbidopa (CD, powder) [Teva Pharmaceuticals Ltd., Israel] was added to LDA-HCl solution. […] Precipitation occurred at room temperature. Method 2. Liquid CD formulations were prepared by weighting CD [Teva Pharmaceuticals Ltd., Israel] in a suitable container with different L-arginine [Merck] weights to obtain a final concentration of 0.8% CD (wet form, 0.75% dry form) in different molar ratios to arginine (Table 6). CD formulations were prepared as described in the International Publication No. WO 2010/134074. LDA-HCl (powder) was added to CD solutions to attain the final desired concentration of LDA-HCl/CD formulations. Method 3. CD solutions (40 mg/ml, prepared as described in the International Publication No. WO 2010/134074) were mixed with LDA-HCl solutions to attain the final desired concentration of LDA/CD formulations. The LDA-HCl formulations were prepared by dissolving 200, 160 or 120 mg/ml of LDA-HCl in 40 mM citric buffer. The chemical stability of 7 LDA-HCl/CD formulations was evaluated by HPLC analysis at t0 and after 5 days at room temperature. The recovery after 5 days at room temperature was calculated compared to t0 (Table 7).

[8] = Solubility of LDA in water in the absence of an acid; assay type: physicochemical; conditions: water with and without 0.3% Tween-80, absence of an acid; data not shown
Description: LDA in water with and without 0.3% Tween-80, at concentrations greater than 2.5% (data not shown), is not soluble in the absence of an acid.

[9] = Stability of LDA 200 mg/ml solution with HCl; assay type: physicochemical
Experimental: The effect of HCl, representing an inorganic acid, on the stability of LDA solution was evaluated. HCl solution containing 0.3% Tween 80 was added to LDA to obtain a solution having a final LDA concentration of 200 mg/ml and a molar ratio of about 1:1 LDA:HCl. The physical stability of the solution and the chemical stability of LDA were evaluated (Table 13). As shown, LDA (200 mg/ml) is stable for at least 9 days in solution containing HCl at a molar ratio of about 1:1.

N[C@@H](Cc1ccc(O)c(O)c1)C(=O)O [LD, L-3,4-dihydroxyphenylalanine, reference compound]
LD plasma level ([1]; IV LDA-HCl 20 mg/kg, 3 h thereafter): below limit of quantification
share of administered levodopa that enters the brain unaltered [2]: 1-3%

NC(=O)C(N)Cc1ccc(O)c(O)c1 (stereo not drawn) [LDA, 2-amino-3-(3,4-dihydroxyphenyl)propanamide]
Chemical stability after 3 days at RT ([3]; Acetic acid, LDA:acid 1:1.2, pH 5.0): 98.4
Chemical stability after 3 days at RT ([3]; Citric acid, LDA:acid 1:08, pH 2.8): 99.3
time physically and chemically stable at RT ([3]; LDA dissolved in organic acid solutions): at least 3 days
Chemical stability after 3 days at RT ([3]; Succinic acid, LDA:acid 1:0.5, pH 5.7): 99.1
Chemical stability after 3 days at RT ([3]; Tartaric acid, LDA:acid 1:0.6, pH 3.8): 100.5
LDA ([3]; dissolved with Acetic acid, pH 5.0): 199 mg/mL
LDA ([3]; dissolved with Citric acid, pH 2.8): 236 mg/mL
LDA ([3]; dissolved with Citric acid, pH 5.6): 175 mg/mL
LDA ([3]; dissolved with Glutamic acid, pH 5.8): 128 mg/mL
LDA ([3]; dissolved with Succinic acid, pH 5.7): 194 mg/mL
LDA ([3]; dissolved with Tartaric acid, pH 3.8): 334 mg/mL
metabolism of LDA to LD [4]: rapidly metabolized to LD
bioavailability ([5]; administered orally): low
metabolism of LDA to LD ([5]; oral administration of LDA-HCl 20 mg/kg): rapidly metabolized to LD
Precipitations [6]: Slight
chemical stability in LDA-HCl/CD formulations [7]: pH-dependent
LDA plasma level ([1]; IV LDA-HCl 20 mg/kg, 1 h thereafter): below limit of quantification
metabolism of LDA to LD ([1]; IV administration of LDA-HCl 20 mg/kg): rapidly metabolized to LD
half-life of LDA compared with LD ([1]; IV and oral administration of LDA-HCl): shorter than that of LD
soluble concentration in water [8]: ≤ 2.5%
time stable in solution ([9]; HCl at a molar ratio of about 1:1): at least 9 days
Chemical stability of LDA 9 days ([9]; LDA:HCl molar ratio 1:0.94, pH 5.81, 0.3% Tween 80, in % (unit assumed)): 100.1

Reference: patent US20170296491A1, “PHARMACEUTICAL COMPOSITIONS COMPRISING LEVODOPA AMIDE AND USES THEREOF” (priority 2015, published 2017)
